TGI and GI50 data for eleven molecules are collected here from PubChem BioAssay (NCI).

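Where inhibition never reached the appropriate level, the endpoint shown equals the highest concentration tested. Otherwise, values were interpolated linearly from a five-concentration, 48-hour dose response in 96-well plates. Here, GI50 denotes the concentration required for 50% inhibition of growth. TGI marks complete inhibition of growth.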

Common to all, as to test: NCI tumour cell line growth inhibition, 48 h
Test [1] relates to MCF7 breast.
Test [2] has as its system IGROV1 ovarian.
Test [3] concerns SNB-75 CNS.
In test [4] the test system is COLO 205 colon.
The test system of test [5] is SF-295 CNS.
The subject of test [6] is TK-10 renal.
For test [7], the system named is CCRF-CEM leukemia.
In test [8] the test system is SK-MEL-2 melanoma.
Test [9] concerns UACC-257 melanoma.
The test system of test [10] is A498 renal.

`CC(=O)OCC1OC(n2ncc(=O)[nH]c2=O)C(OC(C)=O)C1OC(C)=O` (stereo not given): the TGI in test [1], in [2], in test [3], in [4], in [5] and in [6] was greater than 100 µM in each case. This molecule also registered a TGI in test [7] greater than 100 µM.
As for `Cc1ccsc1-c1ccc2c(c1)COC2(CCCN(C)C)c1ccc(F)cc1` (stereo not given), the GI50 in test [8] is 2.78 µM; in test [1] it was 1.74 µM; in [2] it was 1.87 µM; in test [3], 1.72 µM; in [4], 1.92 µM; in test [5] it was 1.77 µM. The GI50 in [6] is 3.04 µM; in [9], 1.94 µM; in test [7], 2.73 µM. Also, the TGI is 7.48 µM in [8]; 3.67 µM in test [1]; 5.86 µM in test [2]; 6.82 µM in test [3]; 4.19 µM in test [4]; 3.58 µM in test [5]. The TGI in test [6] is 12.8 µM; in test [9] it was 3.98 µM; in [7], 8.56 µM.
For `O=C1CC(N2C(=O)/C(=C/C(Cl)=C\c3ccc([N+](=O)[O-])cc3)SC2=S)C(=O)N1c1ccc(O)cc1` (stereo not given), the GI50 is 2.74 µM in test [8]; 1.21 µM in test [1]; 1.2 µM in test [2]; 1.83 µM in [4]; 1.31 µM in test [5]; 1.92 µM in [6]. For the same molecule, the GI50 is 2.48 µM in test [9] and 0.385 µM in test [7]. Also, the TGI in test [8] came to 7.83 µM; in test [1] it was 10.7 µM; in test [2], 2.68 µM; in [4] it was 5.04 µM; in test [5] it was 2.7 µM; in test [6], 3.79 µM. Moreover, the TGI in [9] turned out to be 9.12 µM; in test [7], 3.87 µM.
With `O=C(O)CN(c1ccc(F)cc1)S(=O)(=O)c1ccccc1`, the TGI in test [8], in [2], in test [3], in test [4], in [5] and in test [6] was greater than 100 µM each time. Besides, the TGI in [10], in [9] and in test [7] was greater than 100 µM each time.
On to `CCOC(=O)CN(c1ccccc1)c1nc(=[N+](C)C)ss1`, for which the TGI in test [8] is 55.9 µM; in test [3], greater than 100 µM; in test [4], 15.4 µM; in [6], greater than 100 µM; in test [10] it was greater than 100 µM; in [9], 96 µM. This molecule also had a TGI in [7] of 36.5 µM.
Consider `C=CC(=O)Nc1cccc(Oc2nc(Nc3ccc(N4CCN(C)CC4)cc3OC)ncc2Cl)c1`, for which the GI50 was 2.19 µM in test [8]; 1.29 µM in test [2]; 1.52 µM in test [3]; 2.28 µM in [4]; 2.21 µM in test [5]; 0.513 µM in test [6]. Besides, the GI50 is 1.11 µM in test [10], 1.62 µM in test [9] and 3.17 µM in [7]. Moreover, the TGI in test [8] was 4.3 µM; in [2], 3.56 µM; in test [3] it was 3.98 µM; in test [4] it was 5.07 µM; in test [5], 5.81 µM; in test [6], 1.86 µM. The TGI in test [10] is 3.49 µM; in test [9], 3.17 µM; in test [7], greater than 26.3 µM.
As for `O=C1c2cc(F)ccc2-c2c1c1ccc([N+](=O)[O-])cc1c(=O)n2CCCBr`, the GI50 in [8] was greater than 100 µM; in [1], 1.35 µM; in test [2], 17.4 µM; in test [3], 2.97 µM; in [4], 46.8 µM; in test [5] it was 17.8 µM. The GI50 in [6] was 64.8 µM; in test [9], 13.1 µM; in test [7], 15.6 µM. The TGI is greater than 100 µM in [8]; greater than 100 µM in [1]; greater than 100 µM in test [2]; 50.5 µM in [3]; greater than 100 µM in [4]; greater than 100 µM in test [5]. Also, the TGI in test [6] is greater than 100 µM; in test [9], 82.6 µM; in test [7], greater than 100 µM.
With `O=C(O)c1c2c(cc3c(=O)cc(-c4ccccc4)oc13)CCCC2`, the TGI in test [8], in test [2], in test [3], in [4], in test [5] and in [6] was greater than 100 µM throughout. For the same molecule, the TGI in test [10], in test [9] and in [7] was greater than 100 µM in each case.
As to `Cc1ccc(C(=O)NCCN(C)C)c2nc3ccccc3cc12`, the TGI was greater than 100 µM in [8]; greater than 100 µM in test [2]; 3.54 µM in test [3]; greater than 100 µM in [4]; 3.8 µM in test [5]; 12.2 µM in test [6]. For the same molecule, the TGI in test [9] was 6.01 µM; in test [7], greater than 100 µM.
Consider `COc1cc(CCC(=O)NC[C@@H](O)c2ccccc2)ccc1O`, for which the GI50 in [8], in test [1], in test [2], in test [3], in test [5] and in test [6] was greater than 100 µM in each case. For the same molecule, the GI50 in test [9] and in [7] was greater than 100 µM in each case. For the same molecule, the TGI in test [8], in [1], in [2], in [3], in test [5] and in test [6] was greater than 100 µM throughout. The TGI in test [9] and in test [7] was greater than 100 µM in each case.
For the molecule `Cc1ccc(C2=Nc3ccccc3S(=O)C(c3ccc4c(c3)OCO4)C2)cc1` (stereo not given), the TGI in test [8] was 41.6 µM; in [2] it was greater than 100 µM; in test [3], greater than 100 µM; in [4] it was greater than 100 µM; in [5], greater than 100 µM; in test [6], greater than 100 µM. Besides, the TGI in [10] turned out to be 51.7 µM; in test [9], 88.4 µM; in test [7], 83.9 µM.
